Laboratory results as given in US20050004163A1, “3-(diarylmethylene)-8-azabicyclo[3.2.1]octane derivatives” (priority 2000, published 2005).

biological target: T1, μ-opioid receptor (Rattus norvegicus, UniProt P33535); experiment: Rat brain μ-opioid receptor binding assay ([3H]DAMGO); settings: 10 nM solutions of the compounds, read-out: MOR binding Ki
T1 construct: the forebrains are homogenized in Tris buffer in a Teflon®-glass homogenizer; from tissue; host or cells: forebrain of male Wistar rats (particulate membrane preparation)
Description: Rat Brain μ-Opioid Receptor Binding Assay
Male, Wistar rats (150-250 g, VAF, Charles River, Kingston, N.Y.) are killed by cervical dislocation and their brains removed and placed immediately in ice cold Tris HCl buffer (50 mM, pH 7.4). The forebrains are separated from the remainder of the brain by a coronal transection, beginning dorsally at the colliculi and passing ventrally through the midbrain-pontine junction. After dissection, the forebrains are homogenized in Tris buffer in a Teflon®-glass homogenizer. The homogenate is diluted to a concentration of 1 g of forebrain tissue per 100 mL Tris buffer and centrifuged at 39,000×G for 10 min. The pellet is resuspended in the same volume of Tris buffer with several brief pulses from a Polytron homogenizer. This particulate preparation is used for the μ-opioid binding assays. […] The tubes and filters are rinsed three times with 4 mL of 10 mM HEPES (pH 7.4) and the radioactivity associated with the filter circles determined using Formula 989 scintillation fluid (New England Nuclear, Boston, Mass.) in a scintillation counter.
The data are used to calculate either the % inhibition compared to control binding (when only a single concentration of test compound is evaluated) or a Ki value (when a range of concentrations is tested).
% Inhibition is calculated as follows: [formula]
Ki value is calculated using the LIGAND (Munson, P. J. and Rodbard, D., Anal. Biochem. 107: 220-239, 1980) data analysis program.

T1 sequence (P33535 whole entry): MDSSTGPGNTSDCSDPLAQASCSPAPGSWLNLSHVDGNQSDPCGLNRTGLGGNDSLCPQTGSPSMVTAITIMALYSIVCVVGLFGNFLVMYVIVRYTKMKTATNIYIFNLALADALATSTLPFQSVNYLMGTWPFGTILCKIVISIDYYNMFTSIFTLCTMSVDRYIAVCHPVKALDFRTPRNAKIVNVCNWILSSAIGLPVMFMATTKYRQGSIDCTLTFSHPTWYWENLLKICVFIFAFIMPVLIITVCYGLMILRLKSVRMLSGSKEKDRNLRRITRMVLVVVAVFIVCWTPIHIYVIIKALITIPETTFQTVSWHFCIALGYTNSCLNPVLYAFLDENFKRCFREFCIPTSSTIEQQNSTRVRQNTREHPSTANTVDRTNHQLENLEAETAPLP

Point of comparison: `CCNC(=O)c1ccc(C(=C2CC3CCC(C2)N3CC=C(C)C)c2cccc(C(=O)O)c2)cc1` (single isomer, unassigned) [Cpd 44], Ki 0.0583 µM. Against it:
- CCNC(=O)c1ccc(C=C2CC3CCC(C2)N3CCc2ccccc2O)cc1 [Cpd 86] — 3-fold lower, 0.0193 µM
- CCNC(=O)c1ccc(C=C2CC3CCC(C2)N3Cc2ncc[nH]2)cc1 [Cpd 32] — 6.6-fold higher, 0.385 µM
- CCNC(=O)c1ccc(C(=C2CC3CCC(C2)N3CC=C(C)C)c2cccc(C(=O)O)c2)cc1 (single isomer, unassigned) [Cpd 45] — 2.5-fold lower, 0.0237 µM
- CCNC(=O)c1ccc(C(Br)=C2CC3CCC(C2)N3Cc2sccc2C)cc1 [Cpd 28] — within 1.5-fold, 0.0696 µM
- CCNC(=O)c1ccc(C(=C2CC3CCC(C2)N3C=O)c2cccnc2)cc1 [Cpd 207, N-Ethyl-4-[(8-formyl-8-aza-bicyclo[3.2.1]oct-3-ylidene)-pyridin-3-yl-methyl]-benzamide] — 170-fold higher, 10 µM
- CCNC(=O)c1ccc(C(=C2CC3CCC(C2)N3CCc2ccccc2)c2ccc(CCC(=O)O)cc2)cc1 [Cpd 135] — 5.5-fold higher, 0.318 µM
- CCNC(=O)c1ccc(C(=C2CC3CCC(C2)N3Cc2ccco2)c2nnn[nH]2)cc1 [Cpd 204] — 430-fold higher, 25.3 µM
- CCNC(=O)c1ccc(C(=C2CC3CCC(C2)N3Cc2ccoc2)c2ccc([N+](=O)[O-])cc2)cc1 [Cpd 126] — 40-fold lower, 0.00145 µM
- CCNC(=O)c1ccc(C(=C2CC3CCC(C2)N3Cc2ccsc2)c2ccc3c(c2)OCO3)cc1 [Cpd 7] — 19-fold lower, 0.00305 µM
- CCN(CC)C(=O)c1ccc(C=C2CC3CCC(C2)N3Cc2ccsc2)cc1 [Cpd 52] — 110-fold higher, 6.49 µM
- CCNC(=O)c1ccc(C(=C2CC3CCC(C2)N3Cc2nccs2)c2ccc(C(N)=O)cc2)cc1 [Cpd 188] — 8.4-fold higher, 0.491 µM
- CCNC(=O)c1ccc(C(Br)=C2CC3CCC(C2)N3Cc2ccc3ccccc3n2)cc1 [Cpd 25] — 1.6-fold higher, 0.095 µM
- CCNC(=O)c1ccc(C(=C2CC3CCC(C2)N3Cc2ccoc2)c2ccc3c(c2)OCO3)cc1 [Cpd 10] — 55-fold lower, 0.00106 µM
- CCNC(=O)c1ccc(C(=C2CC3CCC(C2)N3Cc2ccc(C(=O)O)o2)c2ccccc2)cc1 [Cpd 95] — 7.2-fold higher, 0.421 µM

same assay, conditions: MOR binding Ki

Point of comparison: `CCNC(=O)c1ccc(C(=C2C[C@H]3CC[C@@H](C2)N3C(=O)Cc2ccccc2)c2cccnc2)cc1` (single isomer, unassigned) [Cpd 217], Ki 0.00307 µM. Against it:
- CCNC(=O)c1ccc(C(=C2CC3CCC(C2)N3CCc2ccccc2)c2cccc(-c3nnn[nH]3)c2)cc1 [Cpd 166] — 16-fold higher, 0.0503 µM
- CCNC(=O)c1ccc(C(=C2CC3CCC(C2)N3Cc2nccs2)c2ccc(C(=O)O)cc2)cc1 [Cpd 174] — 99-fold higher, 0.304 µM
- CCNC(=O)c1ccc(C(=C2CC3CCC(C2)N3Cc2ccsc2)c2cccc(-c3nnn[nH]3)c2)cc1 (single isomer, unassigned) [Cpd 215] — 1000-fold higher, 3.12 µM
- CCNC(=O)c1ccc(C(=C2CC3CCC(C2)N3Cc2ccc(C(=O)O)cc2)c2ccccc2)cc1 [Cpd 94] — 100-fold higher, 0.322 µM
- CCNC(=O)c1ccc(C(=C2CC3CCC(C2)N3Cc2ccsc2)c2cccc(-c3nnn[nH]3)c2)cc1 [Cpd 169] — 4.6-fold higher, 0.0142 µM
- CCNC(=O)c1ccc(C(=C2CC3CCC(C2)N3Cc2ccsc2)c2ccc(C(=O)O)cc2)cc1 [Cpd 176] — 3.5-fold higher, 0.0107 µM
- CCNC(=O)c1ccc(C(=C2CC3CCC(C2)N3)c2nnn[nH]2)cc1 (single isomer, unassigned) [Cpd 202] — 2600-fold higher, 8.12 µM
- CCNC(=O)c1ccc(C=C2CC3CCC(C2)N3Cc2ccsc2)cc1 [Cpd 33] — 64-fold higher, 0.198 µM
- CCNC(=O)c1ccc(C(=C2CC3CCC(C2)N3Cc2ccc3ccccc3n2)c2cccc(C#N)c2)cc1 [Cpd 20] — 42-fold higher, 0.129 µM
- CCNC(=O)c1ccc(C(=C2CC3CCC(C2)N3Cc2ccoc2)c2ccc(C(=O)O)cc2)cc1 [Cpd 97] — 3.9-fold higher, 0.0119 µM
- CCNC(=O)c1ccc(C(=C2CC3CCC(C2)N3CC#N)c2ccccc2)cc1 [Cpd 43, 4-[(8-Cyanomethyl-8-aza-bicyclo[3.2.1]oct-3-ylidene)-phenyl-methyl]-N-ethyl-benzamide] — 230-fold higher, 0.721 µM
- CCNC(=O)c1ccc(C(=C2CC3CCC(C2)N3Cc2csc([N+](=O)[O-])c2)c2cccc(C(C)=O)c2)cc1 [Cpd 76] — 60-fold higher, 0.184 µM
- CCNC(=O)c1ccc(C(=C2CC3CCC(C2)N3Cc2ccsc2)c2cccc(-c3nnn[nH]3)c2)cc1 (single isomer, unassigned) [Cpd 216] — 3.9-fold higher, 0.0121 µM
- CCNC(=O)c1ccc(C(C#N)=C2CC3CCC(C2)N3Cc2ccoc2)cc1 [Cpd 143] — 3-fold lower, 0.00103 µM
- CCNC(=O)c1ccc(C(=C2CC3CCC(C2)N3CCc2ccccc2)c2cccc(CN)c2)cc1 [Cpd 158] — 3.9-fold higher, 0.012 µM
- CCNC(=O)c1ccc(C(=C2CC3CCC(C2)N3Cc2nccs2)c2cc(N)cc(C(=O)O)c2)cc1 [Cpd 118] — 3300-fold higher, 10 µM
- CCNC(=O)c1ccc(C(Br)=C2CC3CCC(C2)N3Cc2ccoc2)cc1 (single isomer, unassigned) [Cpd 212] — 13-fold higher, 0.0385 µM
- CCNC(=O)c1ccc(C(=C2CC3CCC(C2)N3Cc2ccoc2)c2nnn[nH]2)cc1 [Cpd 144] — 69-fold higher, 0.212 µM
- CCNC(=O)c1ccc(C(=C2CC3CCC(C2)N3Cc2ccoc2)c2cnc3ccccc3c2)cc1 [Cpd 17] — 6.6-fold higher, 0.0203 µM
- CCNC(=O)c1ccc(C(=C2CC3CCC(C2)N3CC=C(C)C)c2ccc([N+](=O)[O-])cc2)cc1 [Cpd 136] — within 1.5-fold, 0.00303 µM
- CCNC(=O)c1ccc(C(=C2CC3CCC(C2)N3Cc2ccc3ccccc3n2)c2cnccn2)cc1 [Cpd 30] — 4.9-fold higher, 0.015 µM
- CCNC(=O)c1ccc(C(=C2CC3CCC(C2)N3Cc2nccs2)c2ccc(CCC(=O)O)cc2)cc1 [Cpd 132] — 53-fold higher, 0.164 µM
- CCNC(=O)c1ccc(C(=C2CC3CCC(C2)N3Cc2ccc(NC(C)=O)cc2)c2cccc(C(=O)O)c2)cc1 [Cpd 84] — 1800-fold higher, 5.66 µM
- CCNC(=O)c1ccc(C(=C2CC3CCC(C2)N3C(=O)c2ccccn2)c2cccnc2)cc1 [Cpd 213] — 3300-fold higher, 10 µM
- CCNC(=O)c1ccc(C(=C2CC3CCC(C2)N3Cc2ccccn2)c2cnc3ccccc3c2)cc1 [Cpd 66] — 46-fold higher, 0.142 µM
- CCNC(=O)c1ccc(C(=C2CC3CCC(C2)N3Cc2ccc3ccccc3n2)c2cncnc2)cc1 [Cpd 101] — 37-fold higher, 0.113 µM
- CCNC(=O)c1ccc(C(=C2CC3CCC(C2)N3Cc2ccoc2)c2cccc(CN)c2)cc1 [Cpd 153] — 23-fold higher, 0.0711 µM
- CCNC(=O)c1ccc(C(=C2CC3CCC(C2)N3CC=C(C)C)c2cccc3cccnc23)cc1 [Cpd 67] — 39-fold higher, 0.119 µM
- CCNC(=O)c1ccc(C(=C2CC3CCC(C2)N3Cc2ccco2)c2ccc3c(c2)OCO3)cc1 [Cpd 8] — 2.4-fold higher, 0.00741 µM
- CCNC(=O)c1ccc(C(=C2CC3CCC(C2)N3CCc2ccccc2)c2cccc(C(=O)O)c2)cc1 [Cpd 83] — 5.6-fold higher, 0.0172 µM
- CCNC(=O)c1ccc(C(=C2CC3CCC(C2)N3Cc2ccsc2)c2cccc(CO)c2)cc1 [Cpd 189] — 4.5-fold higher, 0.0137 µM
- CCNC(=O)c1ccc(C(=C2CC3CCC(C2)N3CCc2ccccc2)c2ccc([N+](=O)[O-])cc2)cc1 [Cpd 134] — 2.5-fold higher, 0.00757 µM
- CCNC(=O)c1ccc(C=C2CC3CCC(C2)N3Cc2cccnc2)cc1 [Cpd 57] — 460-fold higher, 1.41 µM
- CCNC(=O)c1ccc(C(=C2CC3CCC(C2)N3Cc2ccccn2)c2cccc3cccnc23)cc1 [Cpd 70] — 13-fold higher, 0.0411 µM
- CCNC(=O)c1ccc(C(=C2CC3CCC(C2)N3Cc2nnn[nH]2)c2ccccc2)cc1 [Cpd 90, N-Ethyl-4-{phenyl-[8-(1H-tetrazol-5-ylmethyl)-8-aza-bicyclo[3.2.1]oct-3-ylidene]-methyl}-benzamide] — 130-fold higher, 0.406 µM
- CCNC(=O)c1ccc(C(=C2CC3CCC(C2)N3CC=C(C)C)c2cccc(-c3nnn[nH]3)c2)cc1 [Cpd 163] — 16-fold higher, 0.0493 µM
- CCNC(=O)c1ccc(C(=C2CC3CCC(C2)N3Cc2cccs2)c2cnc3ccccc3c2)cc1 [Cpd 64] — 10-fold higher, 0.0308 µM
- CCNC(=O)c1ccc(C(=C2CC3CCC(C2)N3Cc2cccs2)c2cc(N)cc(C(=O)O)c2)cc1 [Cpd 120] — 1700-fold higher, 5.36 µM
- CCNC(=O)c1ccc(C(=C2CC3CCC(C2)N3Cc2ccoc2)c2cc(C(=O)O)cc([N+](=O)[O-])c2)cc1 [Cpd 152] — 4-fold higher, 0.0122 µM
- CCNC(=O)c1ccc(C(=C2CC3CCC(C2)N3Cc2ccoc2)c2ccc(CCC(=O)O)cc2)cc1 [Cpd 127] — within 1.5-fold, 0.00296 µM
- CCNC(=O)c1ccc(C(=C2CC3CCC(C2)N3Cc2cccs2)c2cccc3cccnc23)cc1 [Cpd 68] — 50-fold higher, 0.155 µM
- CCNC(=O)c1ccc(C(=C2CC3CCC(C2)N3Cc2ccc3c(c2)OCO3)c2cccc3cccnc23)cc1 [Cpd 69] — 43-fold higher, 0.133 µM
- CCNC(=O)c1ccc(C(=C2CC3CCC(C2)N3Cc2ccc(NC(C)=O)cc2)c2cnc3ccccc3c2)cc1 [Cpd 14] — 310-fold higher, 0.959 µM
- CCNC(=O)c1ccc(C(=C2CC3CCC(C2)N3Cc2ccc3ccccc3n2)c2cccc(C(C)=O)c2)cc1 [Cpd 73] — 12-fold higher, 0.0359 µM
- CCNC(=O)c1ccc(C=C2C[C@H]3CC[C@@H](C2)N3CCc2ccccc2)cc1 (single isomer, unassigned) [Cpd 42, (−)—N-Ethyl-4-(8-phenethyl-8-aza-bicyclo[3.2.1]oct-3-ylidenemethyl)-benzamide] — 2-fold higher, 0.00599 µM
- CCNC(=O)c1ccc(C(Br)=C2CC3CCC(C2)N3Cc2ncc[nH]2)cc1 [Cpd 22] — 19-fold higher, 0.0585 µM
- CCNC(=O)c1ccc(C=C2CC3CCC(C2)N3CCC(C#N)(c2ccccc2)c2ccccc2)cc1 [Cpd 106, 4-[8-(3-Cyano-3,3-diphenylpropyl)-8-aza-bicyclo[3.2.1]oct-3-ylidenemethyl]-N-ethyl-benzamide] — 17-fold higher, 0.0536 µM
- CCNC(=O)c1ccc(C(=C2CC3CCC(C2)N3Cc2ccccn2)c2cccc(CO)c2)cc1 [Cpd 181] — 2-fold higher, 0.00604 µM
- CCNC(=O)c1ccc(C(=C2CC3CCC(C2)N3CC=C(C)C)c2cc(N)cc(C(=O)O)c2)cc1 [Cpd 114] — 1600-fold higher, 4.83 µM
